Data set [1] can be described thus: GLP-1 peptide formulations with SNAC and trace elements: dissolution in aqua purificata, visual (Example 4). It is filed as physicochemical. The settings on record: liraglutide 1.8 mg/ml, SNAC 20 mg, trace element 2 mg, disodium phosphate dihydrate, 2 ml aqua purificata. The protocol: Compositions comprising a GLP-1 peptide, a complexing agent (disodium phosphate dihydrate), the absorption enhancer N-(8-[2-hydroxybenzoyl]amino)caprylic acid (SNAC) and various trace elements or metal salts were prepared and dissolved in 2 ml of aqua purificata and examined visually.

In the next data set the target is chymotrypsin (Bos taurus, UniProt P00766). The experiment in a line: Chymotrypsin inhibition, BTPNA substrate, absorbance at 405 nm (Examples 9, 13-19, 23, 24, 27, 30, 31). The settings on record: for Inhibition %: Example 15.
The next data set addresses T1, trypsin (Bos taurus, UniProt P00760).
T1 construct: gene PRSS1
T1 sequence (P00760 24-246): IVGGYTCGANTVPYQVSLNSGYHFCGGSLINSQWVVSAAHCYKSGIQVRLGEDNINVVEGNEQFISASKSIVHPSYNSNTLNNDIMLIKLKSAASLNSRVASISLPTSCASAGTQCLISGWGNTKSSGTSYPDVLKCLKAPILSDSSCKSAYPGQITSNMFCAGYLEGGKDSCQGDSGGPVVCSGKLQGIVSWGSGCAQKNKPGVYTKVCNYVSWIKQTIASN
The experiment in a line: Trypsin inhibition, BAPNA substrate, absorbance at 405 nm (Examples 10-12, 20-22, 25, 26, 28, 29, 33). The settings on record: for inhibition of trypsin: 50 mM TRIS pH 7. The class given is biochemical. The protocol: 100 mg/ml copper gluconate in 50 mM TRIS pH 7; pH was adjusted to pH 7; stock solution was diluted to the following concentrations: 50 mg/ml, 25 mg/ml, 12.5 mg/ml, 5 mg/ml, 6.25 mg/ml, 3.125 mg/ml, 2.5 mg/ml, 1.25 mg/ml, 0.625 mg/ml, 0.313 mg/ml, 0.156 mg/ml and 0.078 mg/ml
0.5 mg/mL Benzoyl-Arginine p-nitroanilide (BAPNA)
100 μl 50 mM TRIS pH 7+50 μL Trypsin Stock+50 μL BAPNA Stock
100 μl Copper solution (according to the above described dilutions)+50 μL Trypsin Stock+50 μL BAPNA Stock
Absorption was measured after 15 minutes at 405 nm.
Values were corrected (subtraction of blank).
100 mg/ml Zinc bisglycinate in 50 mM TRIS pH 7; pH was adjusted to pH 7; stock solution was diluted to the following concentrations: 50 mg/ml and 25 mg/ml
100 μl Zinc solution (according to the above described dilutions)+50 μL Trypsin Stock+50 μL BAPNA Stock
10 mg/ml iron gluconate in 50 mM TRIS pH 7; pH was adjusted to pH 7; stock solution was diluted to the following concentrations: 5 mg/ml, 2.5 mg/ml, 1.25 mg/ml and 0.625 mg/ml
100 μl Iron solution (according to the above described dilutions)+50 μL Trypsin Stock+50 μL BAPNA Stock
Absorption was measured directly at 405 nm.
Benzoyl-Arginine p-nitroanilide (BAPNA): 0.5 mg/ml in 50 mM TRIS pH 7 (centrifuged and supernatant used as stock solution)
Trypsin: […] in 50 mM TRIS pH 7
1 mg/mL iron gluconate in 10 mM TRIS pH 7 (iron content=12%), 0.12 mg/ml iron
12 mg/mL copper lysinate in 10 mM TRIS pH 7 (copper content=3%), 0.12 mg/ml copper
100 μl of the respective salt solution+50 μL Trypsin Stock+50 μL BAPNA Stock
Experiments were carried out at pH 7, 50 mM TRIS.
0.025 mg/ml Trypsin, 0.125 mg/mL Benzoyl-Arginine p-nitroanilide (BAPNA.) Lauryl glutamate:
0.25 mg/ml; copper content (as copper(II)gluconate): 0.035 mg/ml.
Adsorption measurement at 405 nm
0.025 mg/ml Trypsin, 0.125 mg/mL Benzoyl-Arginine p-nitroanilide (BAPNA). lauryl-glutamate:
Absorption measurement at 405 nm
0.025 mg/ml Trypsin, 0.125 mg/mL Benzoyl-Arginine p-nitroanilide (BAPNA). Capryl-glucoside:
Copper sulfate stock solution: 1 mg/ml of copper sulfate was dissolved in 50 mM TRIS pH 7. Copper tartrate stock solution: 1 mg/ml of copper tartrate was dispersed in 50 mM TRIS pH 7 and moderately stirred for 5 minutes. The suspension was then centrifuged at 3′000 rpm for 10 minutes, to separate the insoluble salt. The supernatant was used as stock solution for the experiments.
Zinc orotate stock solution: 1 mg/ml of zinc orotate was dispersed in 50 mM TRIS pH 7 and moderately stirred for 5 minutes. The suspension was then centrifuged at 3′000 rpm for 10 minutes, to separate the insoluble salt. The supernatant was used as stock solution for the experiments.
100 μL of the respective salt solution stock+50 μL Trypsin Stock+50 μL BAPNA Stock
Control: 100 μL of 50 mM TRIS pH 7+50 μL Trypsin Stock+50 μL BAPNA Stock
Final concentrations of protease and substrate were 0.025 mg/ml Trypsin, 0.125 mg/mL
50 μl manganese sulfate+50 μl copper gluconate+50 μL Trypsin Stock+50 μL BAPNA Stock
Absorption measurement at 405 nm; final pH in all solutions was monitored to be pH 7.
3 mg/ml SiO2—suspended in 50 mM TRIS pH 7 and centrifuged; supernatant was used for experiments.
50 μl SiO2+50 μl 50 mM TRIS pH 7+50 μL Trypsin Stock+50 μL BAPNA Stock
50 μl copper gluconate+50 μl SiO2+50 μL Trypsin Stock+50 μL BAPNA Stock
50 μl iron gluconate+50 μl SiO2+50 μL Trypsin Stock+50 μL BAPNA Stock
120 μl 50 mM TRIS pH 7+50 μL Trypsin Stock+50 μL BAPNA Stock
80 μl copper gluconate+40 μl 50 mM TRIS pH 7+50 μL Trypsin Stock+50 μL BAPNA Stock
40 μl copper gluconate+80 μl 50 mM TRIS pH 7+50 μL Trypsin Stock+50 μL BAPNA Stock
80 μl iron gluconate+40 μl 50 mM TRIS pH 7+50 μL Trypsin Stock+50 μL BAPNA Stock
40 μl iron gluconate+80 μl 50 mM TRIS pH 7+50 μL Trypsin Stock+50 μL BAPNA Stock
80 μl iron gluconate+40 μl copper gluconate+50 μL Trypsin Stock+50 μL BAPNA Stock

Data set [2] is described as follows: Pharmacokinetic profiles of PTH(1-34) formulations after intestinal administration (Example 3). The class given is in vivo, Sprague Dawley rats. The settings on record: relative to PTH(1-34) s.c. The protocol:
Teriparatide (PTH1-34) was dosed subcutaneously in volume of 1 ml/kg (final concentration 0.024 mg/ml teriparatide) to anaesthetized rats. TER001 and TER002 were dosed into ileum in volume of 0.4 mi/kg (final concentration 0.24 mg/ml teriparatide) to anaesthetized rats. […] The teriparatide plasma concentrations were determined using commercial pTH (1-34) human ELISA kit (Biovendor, EU, cat. number RS-1163.0001).

Data set [3] is described as follows: Pharmacokinetic profile of octreotide formulations after administration into proximal jejunum (Example 8). The procedure:
The formulations OCT002, OCT003 and OCT004 were dissolved in an octreotide stock solution 5-10 min prior to dosing into proximal jejunum in volume of 0.4 ml/kg to anaesthetized rats. The final octreotide concentration of each formulation was 0.36 mg/kg. Blood was taken from tail vessels at the time points 0, 10, 20, 40, 60, 90 and 120 min after dosing. The octreotide plasma concentration was determined using commercial octreotide kit (Peninsula Laboratories International, Inc., USA, cat.number S-1342.0001).

The conditions of data set [4]: study comparing aprotinin with aminocaproic acid; cited from earlier work.
[5] abbreviates: Sprague Dawley, rat, in vivo, sc.
The mark [6] stands for this setting: Example 20, solutions 1 mg/mL iron gluconate, 1 mg/mL copper gluconate, 12 mg/mL copper lysinate, FIG. 11.
[7] abbreviates: Example 33, stocks 1 mg/ml copper(II)gluconate, 1 mg/ml iron(II)gluconate, 40 or 80 μl, pH 7, FIG. 23.

Procedure for chymotrypsin: CuSO4.5H2O dilutions in 10 mM TRIS buffer pH 7 to 10 mM, 5 mM, 2.5 mM 1.25 mM Benzoyl-Tyrosine p-nitroanilide (BTPNA): 0.5 mg/mL BTPNA in Acetone
Study: • (1) 100 μl buffer (10 mM TRIS, pH=7)+50 μl Chymotrypsin Stock+50 μl BTPNA • (2) 80 μl buffer (10 mM TRIS, pH=7)+20 μl CuSO4 stock (10 mM)+50 μl Chymotrypsin Stock+50 μl BTPNA • (3) 80 μl buffer (10 mM TRIS, pH=7)+20 μl CuSO4 dilut. (5 mM)+50 μl Chymotrypsin Stock+50 μl BTPNA • (4) 80 μl buffer (10 mM TRIS, pH=7)+20 μl CuSO4 stock (2.5 mM)+50 μl Chymotrypsin Stock+50 μl BTPNA • (5) 80 μl buffer (10 mM TRIS, pH=7)+20 μl CuSO4 dilut. (1.25 mM)+50 μl Chymotrypsin Stock+50 μl BTPNA
Final copper concentrations: 1 mM, 0.5 mM, 0.25 mM, 0.125 mM.
10 mM CuSO4 and Copper gluconate stock solution were diluted 1:1 with 10 mM TRIS buffer pH 7
Study: • (1) 100 μl buffer (10 mM TRIS, pH=7)+50 μl Chymotrypsin Stock+50 μl BTPNA • (2) 80 μl buffer (10 mM TRIS, pH=7)+20 μl CuSO4 dil. (5 mM)+50 μl Chymotrypsin Stock+50 μl BTPNA • (3) 80 μl buffer (10 mM TRIS, pH=7)+20 μl Copper gluconate dilut. (5 mM)+50 μl Chymotrypsin Stock+50 μl BTPNA • (4) 100 μl Cu-bisglycinate stock (0.5 mM)+50 μl Chymotrypsin Stock+50 μl BTPNA
10 mM CuSO4 stock solution was diluted 1:1 with 10 mM TRIS Puffer pH 7
Study: • (1) 30 μl buffer (10 mM TRIS, pH=7)+20 μl CuSO4 dil. (5 mM)+100 μl Chymotrypsin Stock: 30 min. incubation, then addition of 50 μl BTPNA • (2) 30 μl buffer (10 mM TRIS, pH=7)+100 μl Chymotrypsin Stock: 30 min. incubation, then addition of 20 μl CuSO4 dil. (5 mM)+50 μl BTPNA
Final copper concentration: 0.5 mM
Iron(II)-bisglycinate solution containing 1.86 mM of iron in 10 mM TRIS buffer pH 7 was prepared
Cu(II)-gluconate solution containing 2.0 mM of copper in 10 mM TRIS buffer pH 7 was prepared
Study: • (1) 100 μl buffer (10 mM TRIS, pH=7)+50 μl Chymotrypsin Stock+50 μl BTPNA • (2) 100 μl iron(II)-bisglycinate+50 μl Chymotrypsin Stock+50 μl BTPNA • (3) 100 μl copper(II)-gluconate+50 μl Chymotrypsin Stock+50 μl BTPNA
Values were corrected (subtraction of blank). Inhibition was calculated by setting the absorption value of (1) at each time-point as 100%.
Iron(II)-bisglycinate solution containing 0.46 mM of iron in 10 mM TRIS buffer pH 7 was prepared
Cu(II)- bisglycinate solution containing 0.46 mM of copper in 10 mM TRIS buffer pH 7 was prepared
Study: • (1) 100 μl buffer (10 mM TRIS, pH=7)+50 μl Chymotrypsin Stock+50 μl BTPNA • (2) 100 μl iron(II)-bisglycinate+50 μl Chymotrypsin Stock+50 μl BTPNA • (3) 100 μl copper(II)-bisglycinate+50 μl Chymotrypsin Stock+50 μl BTPNA
Values were corrected (subtraction of blank). Inhibition (%) was calculated by setting the absorption value of (1) at each time-point as 100% degradation.
Values were corrected (subtraction of blank). pH was confirmed to be pH 7 after the experiment.
0.025 mg/ml Chymotrypsin, 0.05 mg/mL Benzoyl-Tyrosine p-nitroanilide (BTPNA). Lauryl glutamate: 0.25 mg/ml; copper (as copper gluconate): 0.035 mg/ml.
0.025 mg/ml Chymotrypsin, 0.05 mg/mL Benzoyl-Tyrosine p-nitroanilide (BTPNA). Lauryl glutamate: 0.25 mg/ml; iron (as iron gluconate): 0.03 mg/ml.
100 μl 50 mM TRIS pH 7+50 μL Chymotrypsin Stock+50 μL BTPNA Stock
50 μl Beta-cyclodextrin+50 μl 50 mM TRIS pH 7+50 μL Chymotrypsin Stock+50 μL BTPNA Stock
50 μl copper gluconate+50 μl 50 mM TRIS pH 7+50 μL Chymotrypsin Stock+50 μL BTPNA Stock
50 μl copper gluconate+50 μl Beta-cyclodextrin+50 μL Chymotrypsin Stock+50 μL BTPNA Stock
50 μl copper gluconate+50 μl trisodium phosphate+50 μL Chymotrypsin Stock+50 μL BTPNA Stock
50 μl iron gluconate+50 μl trisodium phosphate+50 μL Chymotrypsin Stock+50 μL BTPNA Stock
Experiments were carried out at pH 7 in 50 mM TRIS buffer.

Consider `O=S(=O)([O-])[O-].[Cu+2]` [Copper sulfate], for which, in data set [1], the “Dissolution in aqua purificata” value was “precipitation”. For the same compound, the inhibition of chymotrypsin entry on chymotrypsin (Example 9, final copper 1, 0.5, 0.25, 0.125 mM, 10 mM TRIS pH 7, FIG. 2) is given as “inhibits the proteolytic enzyme chymotrypsin in a dose dependent manner”. Besides, at chymotrypsin (Example 14, CuSO4, final copper 0.5 mM, 30 min pre-incubation, FIG. 7), the “influence of copper pre-incubation on chymotrypsin activity” value is recorded as “increases the chymotrypsin inhibitory activity”. The trypsin inhibition result at trypsin (pH 7) is “strongly inhibited”.

On to `CC[C@H](C)[C@H](NC(=O)[C@H](CCC(=O)O)NC(=O)[C@H](CO)NC(=O)[C@@H](NC(=O)[C@@H](N)CO)C(C)C)C(=O)N[C@@H](CCC(N)=O)C(=O)N[C@@H](CC(C)C)C(=O)N[C@@H](CCSC)C(=O)N[C@@H](Cc1cnc[nH]1)C(=O)N[C@@H](CC(N)=O)C(=O)N[C@@H](CC(C)C)C(=O)NCC(=O)N[C@@H](CCCCN)C(=O)N[C@@H](Cc1cnc[nH]1)C(=O)N[C@@H](CC(C)C)C(=O)N[C@@H](CC(N)=O)C(=O)N[C@@H](CO)C(=O)N[C@@H](CCSC)C(=O)N[C@@H](CCC(=O)O)C(=O)N[C@@H](CCCN=C(N)N)C(=O)N[C@H](C(=O)N[C@@H](CCC(=O)O)C(=O)N[C@@H](Cc1c[nH]c2ccccc12)C(=O)N[C@@H](CC(C)C)C(=O)N[C@@H](CCCN=C(N)N)C(=O)N[C@@H](CCCCN)C(=O)N[C@@H](CCCCN)C(=O)N[C@@H](CC(C)C)C(=O)N[C@@H](CCC(N)=O)C(=O)N[C@@H](CC(=O)O)C(=O)N[C@H](C(=O)N[C@@H](Cc1cnc[nH]1)C(=O)N[C@@H](CC(N)=O)C(=O)N[C@@H](Cc1ccccc1)C(=O)O)C(C)C)C(C)C` [PTH (1-34) s.c., Teriparatide], for which the F in data set [2] is 100 ± 23%.

A word on the bioavailability: it is dose-corrected exposure relative to a reference, in per cent. Read a high bioavailability as much systemic uptake. For orientation: Cmax means the peak of the concentration-time curve. What is called Tmax is the time at which the peak concentration occurs. On to `C[C@@H](O)[C@@H]1NC(=O)[C@H](CCCCN)NC(=O)[C@@H](Cc2c[nH]c3ccccc23)NC(=O)[C@H](Cc2ccccc2)NC(=O)[C@@H](NC(=O)[C@H](N)Cc2ccccc2)CSSC[C@@H](C(=O)N[C@H](CO)[C@@H](C)O)NC1=O` [Reference (s.c.), Octreotide], for which, in data set [3] (OCT formulations 0.4 ml/kg into proximal jejunum, octreotide 0.36 mg/kg, reference s.c., anaesthetized rats), the “ΔAUC(0-120)” value was 14126 ± 2727 ng·min/mL. The same compound returned a bioavailability in data set [3] (Sprague Dawley, rat, in vivo) of 100 ± 19%. Further, in data set [3] (setting [5]), the Cmax was 148 ± 36 ng/mL and the Tmax is 1.5 h.

For the compound Aprotinin, in data set [4], the increase in mortality is listed as 64%.

With Copper gluconate, the “Dissolution in aqua purificata” value in data set [1] is reported as “Clear yellowish solution”. For the same compound, the Inhibition % was found to be 0% at chymotrypsin (0 minutes, metal ion Fe 0.06 mg/ml (0.92 mM), Cu 0.065 mg/ml (1.0 mM), 10 mM TRIS pH 7); 82% on chymotrypsin (15 minutes, metal ion Fe 0.92 mM, Cu 1.0 mM); 84% at chymotrypsin (30 minutes, metal ion Fe 0.92 mM, Cu 1.0 mM); 82% on chymotrypsin (45 minutes, metal ion Fe 0.92 mM, Cu 1.0 mM); 79% on chymotrypsin (60 minutes, metal ion Fe 0.92 mM, Cu 1.0 mM). Moreover, the chymotrypsin inhibition entry is “can inhibit chymotrypsin” on chymotrypsin (Example 18, stocks: copper gluconate 10 mM, EDTA 5 mM, sodium caprylate 4 mg/ml, pH 7, FIG. 9); “can be inhibited” on chymotrypsin (Example 23, lauryl glutamate […], copper […], pH 7, 50 mM TRIS, FIG. 14); “can be inhibited” on chymotrypsin (Example 27, stocks […] copper(II)gluconate, 1 mg/ml beta-cyclodextrin, FIG. 18); “can be inhibited” at chymotrypsin (Example 31, stocks […] copper(II)gluconate, 1.25 mM EDTA, pH 7, 10 mM TRIS, FIG. 22). Also, on trypsin (Example 10, copper gluconate solutions 100 to 0.078 mg/ml, after 15 minutes, FIG. 3), the inhibition of trypsin result is recorded as “inhibits the proteolytic enzyme trypsin in a dose dependent manner”. Besides, the trypsin inhibition entry was “can be inhibited” on trypsin (setting [6]); “can be inhibited” at trypsin (Example 21, lauryl glutamate […], copper […], pH 7, 50 mM TRIS, FIG. 12); “can be inhibited” at trypsin (Example 28, stocks 1 mg/ml copper(II)gluconate, 1 mg/ml manganese(II)sulfate, pH 7, FIG. 19); “can be inhibited” at trypsin (setting [7]).

In the case of Iron gluconate, the “Dissolution in aqua purificata” value in data set [1] is given as “Clear orange solution”. Besides, on chymotrypsin (Example 24, lauryl glutamate […], iron 0.03 mg/ml, pH 7, 50 mM TRIS, FIG. 15), the chymotrypsin inhibition entry is listed as “can be inhibited”. For the same compound, the inhibition of trypsin entry at trypsin (Example 12, iron gluconate solutions 10 to 0.625 mg/ml, FIG. 5) is given as “inhibits the proteolytic enzyme trypsin in a dose dependent manner”. In addition, the trypsin inhibition result is on record as “can be inhibited” at trypsin (setting [6]); “can be inhibited” at trypsin (Example 22, lauryl-glutamate […], iron 0.03 mg/ml, pH 7, 50 mM TRIS, FIG. 13); “can be inhibited” at trypsin (Example 25, capryl-glucoside […], iron 0.03 mg/ml, pH 7, 50 mM TRIS, FIG. 16); “can be inhibited” on trypsin (setting [7]).

The record behind these values is patent US10905744B2, “Pharmaceutical formulations for the oral delivery of peptide drugs” (Cyprumed GmbH, priority 2015, dated 2021).
